Literature values in patent US11311573B2, “Pharmaceutical preparations and methods to manage weight and to modulate the gut microbiota” (XENO BIOSCIENCES INC., priority 2016, dated 2022).

Settings: rat, based on chronic oral hydrogen peroxide treatment

## O=C([O-])[O-].O=C([O-])[O-].OO.OO.OO.[Na+].[Na+].[Na+].[Na+] [sodium percarbonate, Sodium percarbonate]
  No-observable-adverse-effect-level (NOAEL): 81 to 115 mg/kg/day
